The source of these data is paper PMC6801405, “Discovery of 3-Arylquinoxaline Derivatives as Potential Anti-Dengue Virus Agents” (International Journal of Molecular Sciences, 2019).

Read-outs that look alike come from different tables or passages of the source. Bounds are passed on as bounds.

Data set [1] concerns DENV2. To be noted: DENV2 in VERO-B cells; cited from earlier work.
The test system of a further data set is DENV. More on the design: method as in PMID 27750144. As to conditions: against DENV; cited from earlier work.
The next data set deals with DENV-2. More on the design: method as in PMID 29031073. To be noted: cited from earlier work; for EC50: anti-DENV-2 activity.
In data set [2] the test system is DENV2. The data set can be described thus: microbe, parasite or virus in culture. It is filed as cell-based, dengue virus. As to conditions: for anti-DENV activity in words: >32% inhibition of DENV-2 at 10 μM considered as active; for SI (selectivity index, CC50/EC50): CC50 Huh-7 / EC50 DENV; for inhibition at 1 µM / inhibition at 10 µM / EC50: Dengue virus; for inhibition at 1 µM / inhibition at 10 µM: DENV2, 72 h; for EC50: DENV2, DENV replication, read-out: EC50 (concentration resulting in a 50% inhibition in virus production).
Procedure: Anti-DENV activities were determined by firefly luciferase activity.
Huh-7-DV-Fluc cells were seeded in 24-well plates at a density of 2 × 10^4 cells per well, and treated with the 3-arylquinoxaline compounds at two concentrations (1 and 10 μM) or 0.1% DMSO as control. After three days of incubation, the luciferase activity assay was performed using the Bright-Glo Luciferase assay system (Promega, Madison, WI, USA) according to the manufacturer’s instructions.

The nature of data set [3]: Cytotoxicity assay (XTT method). It is filed as cell-based, Human. As to conditions: human, mean ± SD; for viability at 72 h, 20 µM / viability at 72 h, 200 µM: Huh-7 cells, XTT; for viability at 72 h, 20 µM: read-out: Huh-7 Cell % viability at 20 μM; for viability at 72 h, 200 µM: read-out: Huh-7 Cell % viability at 200 μM; for CC50 at 72 h: uninfected Huh-7 cells, read-out: CC50 (concentration causing a 50% growth inhibition of uninfected Huh-7 cells). The protocol:
(§1) For cytotoxicity tests, run in parallel with antiviral assays, plates at an initial density of 5 × 10^3 cells/well were treated with or without serial dilutions of test compounds. Cell viability was determined after 72 h at 37 °C in a humidified CO2 (5%) atmosphere by the (2,3-bis[2-methyloxy-4-nitro-5-sulfophenyl]-2H-tetrazolium-5-carboxanilide) (XTT) method.
In general terms: Tetrazolium assays rely on reduction of a dye to a coloured formazan, in cell work by metabolically active cells.

The subject of data set [4] is Huh-7 cells. The data set can be described thus: Cytotoxicity assay (XTT method). It is filed as cell-based, Human. As to conditions: Huh-7 cells. As to the method:
as §1

Data set [5] concerns DENV2. More on the design: method as in PMID 29031073. As to conditions: cited from earlier work.
The test system of data set [6] is Huh-7 cells. More on the design: method as in PMID 29031073. As to conditions: cited from earlier work.
[7] abbreviates: 10 μM, Huh-7-DV-Fluc cells, three days, mean ± SD.
[8] abbreviates: Huh-7-DV-Fluc cells, three days, mean ± SD.

As for `O=C(NCc1ccc(-c2ccncc2)cc1)c1nccnc1C(=O)Nc1ccc(F)cc1` [Compound 1, N^2-(4-fluorophenyl)-N^3-[4-(pyridin-4-yl)benzyl]pyrazine-2,3-dicarboxamide], in the data set with DENV2 [1], the EC50 is 0.93 µM.

Consider `Cc1ccc(Cc2nc(Cc3ccc(C)cc3-c3cc(C)n[nH]3)c3ccccc3n2)cc1` [Compound 2, 4-[4-methyl-2-(3-methyl-1H-pyrazol-5-yl)benzyl)-2-(4-methylbenzyl)quinazoline], for which the EC50 in the data set on DENV is 2.6 µM.

In the case of `COc1ccc(-c2cc(-c3ccc4cc(F)ccc4n3)n(-c3ccc(S(N)(=O)=O)cc3)n2)cc1` [Compound 5, 4-[5-(6-fluoroquinolin-2-yl)-3-(4-methoxyphenyl)-1H-pyrazol-1-yl]benzenesulfonamide], in the data set with DENV-2, the EC50 is 0.81 µM and the “fold more active anti-DENV-2 activity than ribavirin” value is reported as “approximately 10 fold”.

For the compound `COc1ccc(C(=O)c2nc3ccccc3nc2-c2ccccc2)cc1` [Compound 21b, (4-Methoxyphenyl)(3-phenylquinoxalin-2-yl)methanone], the melting point (in general, the temperature, or range, at which the solid turns liquid) lay in the range of 130 to 132.4 °C. For the same compound, the “anti-DENV activity in words” value with DENV2 [2] (10 μM) was “highly active”. Moreover, in the data set with DENV2 [2] (setting [7]), the “DENV2 % Inhibition at 10 μM” value was determined as 51.85 ± 3.52% and the inhibition (in general, how much of the control response was suppressed) at 10 µM was 51%. Also, the “SI (selectivity index, CC50/EC50)” value with DENV2 [2] was above 61.54. The compound also yielded an inhibition at 1 µM in the data set with DENV2 [2] (setting [8]) of 42.8 ± 5.13%. The EC50 in the data set on DENV2 [2] (mean ± SD) was found to be 3.25 ± 0.89 µM. In data set [3], the viability (in general, a read-out of living cells in per cent, often relative to untreated cells) at 72 h, 20 µM worked out at 106 ± 3.12%; the viability at 72 h, 200 µM was determined as 95.1 ± 4.32%; the CC50 at 72 h is above 200 µM. The cytotoxicity in words entry in the data set with Huh-7 cells [4] was “non-cytotoxic”.

The compound `COc1ccc(C(=O)c2nc3ccccc3nc2-c2ccc(OC)cc2)cc1` [Compound 25b, (4-Methoxyphenyl)[3-(4-methoxyphenyl)quinoxalin-2-yl]methanone] came in with a melting point of 144.5 to 146.2 °C. The same compound came in with an inhibition at 1 µM in the data set on DENV2 [2] (setting [8]) of 41.5 ± 3.25%. In the data set on DENV2 [2] (setting [7]), this compound displayed an inhibition at 10 µM of 49.7 ± 4.38%. Also, in data set [3], the viability at 72 h, 20 µM came to 107 ± 3.03% and the viability at 72 h, 200 µM stood at 99.4 ± 2.14%.

As to `COc1ccc(-c2nc3cc(Cl)c(Cl)cc3nc2C(=O)c2ccccc2)cc1` [Compound 26a, [6,7-Dichloro-3-(4-methoxyphenyl)quinoxalin-2-yl](phenyl)methanone], the melting point lay in the range of 173.9 to 174.3 °C. In the data set on DENV2 [2] (setting [8]), this compound returned an inhibition at 1 µM of 1.95 ± 0.82%. The compound also showed an inhibition at 10 µM in the data set with DENV2 [2] (setting [7]) of 14.5 ± 2.55%. Further, in data set [3], the viability at 72 h, 20 µM was 99.4 ± 6.5% and the viability at 72 h, 200 µM is 35.3 ± 4.95%.

With `COc1ccc(C(=O)c2nc3cc(Cl)c(Cl)cc3nc2-c2ccc(OC)cc2)cc1` [Compound 26b, [6,7-Dichloro-3-(4-methoxyphenyl)quinoxalin-2-yl](4-methoxyphenyl)methanone], the melting point lay in the range of 178.8 to 179 °C. Moreover, in the data set with DENV2 [2] (10 μM), the “anti-DENV activity in words” value was “inactive”. In the data set with DENV2 [2] (setting [8]), the inhibition at 1 µM was determined as 1.17 ± 0.41%. In the data set with DENV2 [2] (setting [7]), this compound yielded an inhibition at 10 µM of 19.3 ± 3.85%. In [3], the viability at 72 h, 20 µM is 104 ± 4.22% and the viability at 72 h, 200 µM was found to be 99.1 ± 2.4%.

In the case of `O=C(c1ccc(O)cc1)c1nc2ccccc2nc1-c1ccccc1` [Compound 27, (4-Hydroxyphenyl)(3-phenylquinoxalin-2-yl)methanone], the melting point fell in the range of 196.5 to 199.3 °C. This compound registered an inhibition at 1 µM in the data set with DENV2 [2] (setting [8]) of 44.9 ± 3.68%. In the data set on DENV2 [2] (setting [7]), at 10 µM the inhibition was 48.7 ± 3.48%. Besides, in data set [3], the viability at 72 h, 20 µM is 102 ± 2.84% and the viability at 72 h, 200 µM was found to be 18.4 ± 2.33%.

Take `NC(=O)c1ncn([C@@H]2O[C@H](CO)[C@@H](O)[C@H]2O)n1` [Ribavirin]: the “SI (selectivity index, CC50/EC50)” value in the data set with DENV2 [2] is 4.47. Further, the EC50 with DENV2 [2] (mean ± SD) was 12.6 ± 1.17 µM; in the data set with DENV-2 it was 12.6 µM. The CC50 at 72 h in data set [3] came to 56.3 ± 2.32 µM. Moreover, in the data set on DENV2 [5] (1 μM), the “DENV2 % Inhibition at 1 μM” value is on record as 10.14 ± 1.98%. Further, in the data set with DENV2 [5] (10 μM), the “DENV2 % Inhibition at 10 μM” value was 32.53 ± 2.30%. Also, the “Huh-7 Cell % viability at 20 μM” value in the data set on Huh-7 cells [6] (20 μM) is given as 71.37 ± 1.31%. Moreover, the “Huh-7 Cell % viability at 200 μM” value with Huh-7 cells [6] (200 μM) was 14.36 ± 2.14%.
